The target of this assay is T1, Oxytocin receptor (CHO-OTR/NFAT-β-Lactamase cells) (Homo sapiens, UniProt P30559).
T1 construct: expressed in transfected cells; host or cells: CHO-OTR cell line, further transfected with the NFAT-β-lactamase reporter construct
T1 sequence (P30559 1-389): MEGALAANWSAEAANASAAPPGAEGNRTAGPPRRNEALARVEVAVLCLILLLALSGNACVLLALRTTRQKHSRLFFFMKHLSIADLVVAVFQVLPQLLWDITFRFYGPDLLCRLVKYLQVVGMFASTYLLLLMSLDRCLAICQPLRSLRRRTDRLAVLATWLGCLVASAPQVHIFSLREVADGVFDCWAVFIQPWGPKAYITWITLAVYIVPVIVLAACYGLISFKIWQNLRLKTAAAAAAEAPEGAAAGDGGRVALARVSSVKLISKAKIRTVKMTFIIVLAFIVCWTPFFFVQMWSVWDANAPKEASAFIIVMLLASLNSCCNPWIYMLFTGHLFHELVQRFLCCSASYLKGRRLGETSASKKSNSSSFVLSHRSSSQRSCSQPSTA
As to the kind of experiment: Oxytocin Receptor Beta-lactamase Assay. In kind it is cell-based. As to conditions: oxytocin stimulation 4 hours, read-out: Oxytocin antagonist activity, expressed as a Ki value. As for the experimental part:
A suitable assay for determining the Oxytocin antagonist activity of a compound is detailed herein below.
Oxytocin Receptor Beta-lactamase Assay:
Cell Culture: Cells used are CHO-OTR/NFAT-β-Lactamase. The NFAT-β-lactamase expression construct was transfected into the CHO-OTR cell line and clonal populations were isolated via fluorescence activated cell sorting (FAGS). An appropriate clone was selected to develop the assay.
Culturing cells—CHO-OTR-NFAT-βLactamase cells were grown in growth medium. Cells were harvested when they reached 80-90% confluence removing the medium and washing with pre-warmed PBS. […]
Cells grown at 80-90% confluence were harvested and counted. […]
Preparation of 1 ml of 6× Loading Buffer with Enhanced Loading Protocol (this requires scale-up according to number of plates to be screened) • 12 μl of solution A (1 mM CCF4-AM in Dry DMSO) was added to […] of solution B (100 mg/ml Pluronic-F127 in DMSO+0.1% Acetic Acid) and vortexed. • The resulting solution was added to 925 μl of solution C (24% w/w PEG400, 18% TR40 v/v in water). • 75 μl of solution D was added (200 mM probenecid in 200 mM NaOH). • 10 μl of 6× Loading Buffer was added to all wells and incubated for 1.5 hrs-2 hrs at room temperature in the dark. • The plates were read using an UL Analyst, Excitation 405 nm, Emission 450 nm and 530 nm, gain optimal, lagtime 0.40 μs integration, 4 flashes, bottom reading.

This note sets out measurements from patent publication US20100222365A1, “SUBSTITUTED TRIAZOLE DERIVIATIVES AS OXYTOCIN ANTAGONISTS” (Pfizer Inc, priority 2005, published 2010).

As to `COc1ccc(-n2c(C)nnc2-c2cnc(Oc3cccc(C)c3C)cn2)cn1` [Example 6], the Ki turned out to be 5.5 nM.
